# Values of other authors in patent publication US9963464B2, “Macrocyclic compounds” (Bayer Pharma Aktiengesellschaft, priority 2014, dated 2018).
# Tested on: bronchospasms
# Conditions: in vivo; cited from earlier work
smiles,measurement,value
C[N+]1(C)[C@@H]2C[C@@H](OC(=O)C(O)(c3cccs3)c3cccs3)C[C@H]1[C@@H]1O[C@@H]12 [tiotropium],protection against bronchospasms (duration),more than 6 hours
